Experimental data as given in article PMC12191596, “Gene Expression and Enzyme Kinetics of Polyphenol Oxidases in Strawberry and Their Possible Involvement in Enzymatic Browning Reactions in Strawberry Nectar” (Foods, 2025).
Values belong to the molecule of their own block, whether it stands above or below them.

Key:
[1] = system: T1, PPO2 (FaPPO 2); assay: spectrophotometry, […] nm; format: biochemical, Fragaria vesca; conditions: 50 mM Tris-HCl pH 7, 0.7 mM SDS, 25 °C
T1 construct: latent PPO, transit peptide removed, C-terminal shielding domain kept, N-terminal 6xHis tag, non-codon-optimized cDNA, pET28, E. coli BL21(DE3)

[2] = system: T2, PPO1 (FaPPO 1); assay: spectrophotometry, […] nm; format: biochemical; conditions: 50 mM Tris-HCl pH 7, 0.7 mM SDS, 25 °C
T2 construct: latent PPO, transit peptide removed, C-terminal shielding domain kept, N-terminal 6xHis tag, pET28, E. coli BL21(DE3)

[3] = system: PPO4 (FaPPO 4); assay: spectrophotometry, […] nm; format: biochemical, Fragaria vesca; conditions: 50 mM Tris-HCl pH 7, 1 mM SDS, 25 °C
[4] = system: T1, PPO2 (FaPPO 2); assay: spectrophotometry, […] nm; format: biochemical, Fragaria vesca; conditions: 50 mM Tris-HCl pH 7, 0.7 mM SDS, 25 °C; remark: listed apart in the source
[5] = system: T2, PPO1 (FaPPO 1); assay: spectrophotometry, […] nm; format: biochemical; conditions: 50 mM Tris-HCl pH 7, 0.7 mM SDS, 25 °C; remark: listed apart in the source
[6] = system: PPO4 (FaPPO 4); assay: spectrophotometry, […] nm; format: biochemical, Fragaria vesca; conditions: 50 mM Tris-HCl pH 7, 1 mM SDS, 25 °C; remark: listed apart in the source
[7] = system: T1, PPO2 (FaPPO 2); assay: spectrophotometry, […] nm; format: biochemical, Fragaria vesca; conditions: 50 mM Tris-HCl pH 7, 0.7 mM SDS, 25 °C; remark: listed apart in the source
[8] = system: PPO4 (FaPPO 4); assay: spectrophotometry, […] nm; format: biochemical, Fragaria vesca; conditions: 50 mM Tris-HCl pH 7, 1 mM SDS, 25 °C; remark: listed apart in the source
[9] = system: T2, PPO1 (FaPPO 1); assay: spectrophotometry, […] nm; format: biochemical; conditions: 50 mM Tris-HCl pH 7, 0.7 mM SDS, 25 °C; remark: listed apart in the source
[10] = system: T2, PPO1 (FaPPO 1); assay: spectrophotometry, […] nm; format: biochemical; conditions: 50 mM Tris-HCl pH 7, 0.7 mM SDS, 25 °C; remark: listed apart in the source
[11] = system: T1, PPO2 (FaPPO 2); assay: spectrophotometry, […] nm; format: biochemical, Fragaria vesca; conditions: 50 mM Tris-HCl pH 7, 0.7 mM SDS, 25 °C; remark: listed apart in the source
[12] = system: PPO4 (FaPPO 4); assay: spectrophotometry, […] nm; format: biochemical, Fragaria vesca; conditions: 50 mM Tris-HCl pH 7, 1 mM SDS, 25 °C; remark: listed apart in the source
[13] = system: T2, PPO1 (FaPPO 1); assay: spectrophotometry, […] nm, Hill fit; format: biochemical; conditions: 50 mM Tris-HCl pH 7, 0.7 mM SDS, 25 °C, cooperative
[14] = system: T1, PPO2 (FaPPO 2); assay: spectrophotometry, […] nm, Hill fit; format: biochemical, Fragaria vesca; conditions: 50 mM Tris-HCl pH 7, 0.7 mM SDS, 25 °C, cooperative
[15] = system: T2, PPO1 (FaPPO 1); assay: spectrophotometry, […] nm; format: biochemical; conditions: 50 mM Tris-HCl pH 7, 0.7 mM SDS, 25 °C; remark: listed apart in the source
[16] = system: T1, PPO2 (FaPPO 2); assay: spectrophotometry, […] nm; format: biochemical, Fragaria vesca; conditions: 50 mM Tris-HCl pH 7, 0.7 mM SDS, 25 °C; remark: listed apart in the source
[17] = system: PPO4 (FaPPO 4); assay: spectrophotometry, […] nm; format: biochemical, Fragaria vesca; conditions: 50 mM Tris-HCl pH 7, 1 mM SDS, 25 °C; remark: listed apart in the source

Km [4]: 5700 ± 1900 µM
Km [5]: 2000 ± 400 µM
Km [6]: 3200 ± 1600 µM
Compound: N[C@@H](Cc1ccc(O)c(O)c1)C(=O)O [L-DOPA]

Km [13]: 82 ± 4 µM
Km [14]: 600 ± 400 µM
Compound: O=C(CCc1ccc(O)cc1)c1c(O)cc(O)cc1O [Phloretin]

More lines, now with the values behind:

Compound: NCCc1ccc(O)c(O)c1 [Dopamine]
Km [1]: 950 ± 120 µM
Km [2]: 600 ± 100 µM
Km [3]: 990 ± 110 µM

Compound: Oc1cc(O)c2c(c1)O[C@H](c1ccc(O)c(O)c1)[C@@H](O)C2 [Catechin]
Km [7]: 190 ± 40 µM
Km [8]: 870 ± 80 µM
Km [9]: 120 ± 30 µM

Compound: O=C(/C=C/c1ccc(O)c(O)c1)O[C@@H]1C[C@](O)(C(=O)O)C[C@@H](O)[C@H]1O [Chlorogenic acid]
Km [10]: 2700 ± 400 µM
Km [11]: 1300 ± 200 µM
Km [12]: 1300 ± 200 µM

Compound: Oc1ccccc1O [Catechol]
Km [10]: 27000 ± 2000 µM
Km [11]: 7500 ± 600 µM
Km [12]: 39000 ± 12000 µM

Compound: NCCc1ccc(O)cc1 [Tyramine]
Km [15]: 500 ± 100 µM
Km [16]: 600 ± 100 µM
Km [17]: 1300 ± 100 µM
